Results reported in patent publication US5441932A, “Sugar compounds for inhibition of the biosynthesis of sugar chains containing sialic acid” (priority 1992, dated 1995).
“Also recorded” adds a separate entry of the source.

B1: 2-acetamide-2-deoxy-4-O-(6-deoxy-β-D-galactopyranosyl)-β-D-glucopyranosylated glycophorin (conjugate, UniProt P02724 20-150, looked up)
Glycophorin-A: LSTTEVAMHTSTSSSVTKSYISSQTNDTHKRDTYAATPRAHEVSEISVRTVYPPEEETGERVQLAHHFSEPEITLIIFGVMAGVIGTILLISYGIRRLIKKSPSDVKPLPSPDTDVPLSSVEIENPETSDQ
modifications: glycosylated with fucosyl-GlcNAc disaccharide
notes: sugar compound represented by the aforementioned formula (1) in which R^1 is glycophorin and R^2 is hydrogen
B2: 2-acetamide-2-deoxy-4-O-(6-deoxy-β-D-galactopyranosyl)-β-D-glucopyranosylated ovalbumin (conjugate, UniProt P01012 2-386, looked up)
Ovalbumin: GSIGAASMEFCFDVFKELKVHHANENIFYCPIAIMSALAMVYLGAKDSTRTQINKVVRFDKLPGFGDSIEAQCGTSVNVHSSLRDILNQITKPNDVYSFSLASRLYAEERYPILPEYLQCVKELYRGGLEPINFQTAADQARELINSWVESQTNGIIRNVLQPSSVDSQTAMVLVNAIVFKGLWEKAFKDEDTQAMPFRVTEQESKPVQMMYQIGLFRVASMASEKMKILELPFASGTMSMLVLLPDEVSGLEQLESIINFEKLTEWTSSNVMEERKIKVYLPRMKMEEKYNLTSVLMAMGITDVFSSSANLSGISSAESLKISQAVHAAHAEINEAGREVVGSAEAGVDAASVSEEFRADHPFLFCIKHIATNAVLFFGRCVSP
modifications: glycosylated with fucosyl-GlcNAc disaccharide
notes: sugar compound represented by the aforementioned formula (1) in which R^1 is ovalbumin and R^2 is hydrogen

Target: β-galactoside-α-2, 6-sialyltransferase
Test: Inhibition of β-galactoside-α-2,6-sialyltransferase enzyme activity (biosynthesis of sugar chains containing sialic acid, test system of Paulson et al.)
Assay type: biochemical
Conditions: β-galactoside-α-2,6-sialyltransferase 1×10^-6 units, 0.075 nmol CMP-14C sialic acid, 3 mM β-methyllactosaminide, pH 6.5, 37° C., 10 minutes; read-out: 50% activity inhibition concentration
Description: In other words, the tests were conducted using a test system of the biosynthesis of sialic acid-sugar chains containing sialic acid which was reported by Paulson et al.
A tester solution was prepared containing the following respective reagents in 50 μl of final contents:
100 mM sodium cacodylate buffer solution (pH 6.5);
0.075 nmol cytidine-monophosphate-14C sialic acid;
3 mM β-methyllactosaminide;
A specimen compound was added in 50 μl of the tester solution, and, with addition of 1×10^-6 units of β-galactoside-α-2, 6-sialyltransferase commercially available, the mixture was left to stand at 37° C. for 10 minutes. 1 ml of 5 mM phosphoric acid buffer solution was added to stop the reaction. Then the solution was passed through an anion-exchange resin column (Dowex-1X8, phosphoric acid type, 1 ml) to remove unreacted cytidine-monophosphate-14C sialic acid. Further, the column was washed with 1 ml of 5 mM phosphoric acid buffer solution to recover radioactive sialic acid-containing sugar chains. The radioactivity was measured by a liquid scintillation counter.
The thus-measured radioactivity was shown by percentage to the radioactivity of untreated section not including the specimen compound, which was defined as inhibition activity.
For “2-acetamide-2-deoxy-4-O-(6-deoxy-β-D-galactopyranosyl)-β-D-glucopyranosylated α2-macroglobulin [Sugar compound F]”, the IC50 was 1 µM.
“2-acetamide-2-deoxy-4-O-( 6-deoxy-β-D-galactopyranosyl)-β -D-glucopyranosylated fetuin [Sugar compound D]” gave an IC50 of 4.2 µM.
With “2-acetamide-2-deoxy-4-O-(6-deoxy-β-D-galactopyranosyl)-β-D-glucopyranosylated ovalbumin [Sugar compound C, sugar compound represented by the aforementioned formula (1) in which R^1 is ovalbumin and R^2 is hydrogen]” the IC50 was 10 µM.
B1 gave an IC50 of 2.7 µM.

Tested on: not listed separately
Test: Solubility (physical properties)
Assay type: physicochemical
Conditions: qualitative, in words
In the case of `CO[C@@H]1O[C@H](COC(C)=O)[C@@H](O[C@@H]2O[C@H](CSC(C)=O)[C@H](OC(C)=O)[C@H](OC(C)=O)[C@H]2OC(C)=O)[C@H](OC(C)=O)[C@H]1NC(C)=O` [intermediate i, methyl-2-acetamide-3,6-di-O-acetyl-2-deoxy-4-O-(2,3,4-tri-O-acetyl-6-S-acetyl-6-deoxy-β-D-galactopyranosyl)-β-D-glucopyranoside], the Solubility is reported as “Soluble in chloroform, methanol, and ethanol. Hardly soluble in water and various buffer solutions”.
For `CO[C@@H]1O[C@H](CO)[C@@H](O[C@@H]2O[C@H](COC3CCCCO3)[C@H](O)[C@H](O)[C@H]2O)[C@H](O)[C@H]1NC(C)=O` (stereo partly drawn) [Sugar compound G, methyl-2-acetamide-2-deoxy-4-O-(6-O-tetrahydropyranyl-β-D-galactopyranosyl)-β-D-glucopyranoside], the Solubility was “Soluble in water, alkaline solutions, acid solutions, various buffer solutions, methanol, and ethanol. Hardly soluble in hexane and in chloroform”.
In the case of `CC(=O)N[C@H]1C(O)O[C@H](CO)[C@@H](O[C@@H]2O[C@H](C)[C@H](O)[C@H](O)[C@H]2O)[C@@H]1O` (stereo partly drawn) [Sugar compound B, α- and β-2-acetamide-2-deoxy-4-O-(6-deoxy-β-D-galactopyranosyl)-D-glucose], the Solubility is reported as “Soluble in water, alkaline solutions, acid solutions, various buffer solutions, methanol, and ethanol. Hardly soluble in hexane and in chloroform”.
In the case of `CO[C@@H]1O[C@H](COC(C)=O)[C@@H](O[C@@H]2O[C@H](CO)[C@H](O)[C@H](OC(C)=O)[C@H]2OC(C)=O)[C@H](OC(C)=O)[C@H]1NC(C)=O` [intermediate d, methyl-2-acetamide-3,6-di-O-acetyl-2-deoxy-4-O-(2,3-di-O-acetyl-β-D-galactopyranosyl)-β-D-glucopyranoside], the Solubility is reported as “Soluble in chloroform, methanol, and ethanol. Hardly soluble in water and various buffer solutions”.
With `C[C@H]1O[C@H](OP(=O)(O)OP(=O)(O)OC[C@H]2O[C@@H](n3ccc(=O)[nH]c3=O)[C@H](O)[C@@H]2O)[C@H](O)[C@@H](O)[C@H]1O` [intermediate b, uridine 5'-diphosphate-6-deoxy-D-galactose] the Solubility was “Soluble in water, alkaline solutions, and various buffer solutions; also recorded: Hardly soluble in organic solvents”.
With “2-acetamide-2-deoxy-4-O-(6-deoxy-β-D-galactopyranosyl)-β-D-glucopyranosylated α2-macroglobulin [Sugar compound F]” the Solubility was “Soluble in water and various buffer solutions. Hardly soluble in organic solvents”.
For `CO[C@@H]1O[C@H](COC(C)=O)[C@@H](O[C@@H]2O[C@H](COC3CCCCO3)[C@H](OC(C)=O)[C@H](OC(C)=O)[C@H]2OC(C)=O)[C@H](OC(C)=O)[C@H]1NC(C)=O` (stereo partly drawn) [intermediate g, methyl-2-acetamide-3,6-di-O-acetyl-2-deoxy-4-O-(2,3,4-tri-O-acetyl-6-O-tetrahydropyranyl-β-D-galactopyranosyl)-β-D-glucopyranoside], the Solubility was “Soluble in chloroform, methanol, and ethanol. Hardly soluble in water and various buffer solutions”.
With `CO[C@@H]1O[C@H](COC(C)=O)[C@@H](O[C@@H]2O[C@H](COS(=O)(=O)c3ccc(C)cc3)[C@H](OC(C)=O)[C@H](OC(C)=O)[C@H]2OC(C)=O)[C@H](OC(C)=O)[C@H]1NC(C)=O` [intermediate h, methyl-2-acetamide-3,6-di-O-acetyl-2-deoxy-4-O-(2,3,4-tri-O-acetyl-6-O-p-toluenesulfonyl-β-D-galactopyranosyl)-β-D-glucopyranoside] the Solubility was “Soluble in chloroform, methanol, and ethanol. Hardly soluble in water and various buffer solutions”.
For `CO[C@@H]1O[C@H](CO)[C@@H](O[C@@H]2O[C@H](C)[C@H](O)[C@H](O)[C@H]2O)[C@H](O)[C@H]1NC(C)=O` [Sugar compound A, methyl-2-acetamide-2-deoxy-4-O-(6-deoxy-β-D-galactopyranosyl)-β-D-glucopyranoside], the Solubility was “Soluble in water, alkaline solutions, acid solutions, various buffer solutions, methanol, and ethanol. Hardly soluble in hexane and in chloroform”.
With `CO[C@@H]1O[C@H](COC(C)=O)[C@@H](O[C@@H]2O[C@@H]3COC(c4ccccc4)O[C@@H]3[C@H](OC(C)=O)[C@H]2OC(C)=O)[C@H](OC(C)=O)[C@H]1NC(C)=O` (stereo partly drawn) [intermediate c, methyl-2-acetamide-3,6-di-O-acetyl-2-deoxy-4-O-(2,3-di-O-acetyl-4,6-O-benzylidene-β-D-galactopyranosyl)-β-D-glucopyranoside] the Solubility was “Soluble in chloroform, methanol, and ethanol. Hardly soluble in water and various buffer solutions”.
With `CO[C@@H]1O[C@H](COC(C)=O)[C@@H](O[C@@H]2O[C@H](CO[Si](C)(C)C(C)(C)C)[C@H](OC(C)=O)[C@H](OC(C)=O)[C@H]2OC(C)=O)[C@H](OC(C)=O)[C@H]1NC(C)=O` [intermediate e, methyl-2-acetamide-3,6-di-O-acetyl-2-deoxy-4-O-(2,3,4-tri-O-acetyl-6-O-t-butyldimethylsilyl-β-D-galactopyranosyl)-β-D-glucopyranoside] the Solubility was “Soluble in chloroform, methanol, and ethanol. Hardly soluble in water and various buffer solutions”.
With “2-acetamide-2-deoxy-4-O-( 6-deoxy-β-D-galactopyranosyl)-β -D-glucopyranosylated fetuin [Sugar compound D]” the Solubility was “Soluble in water and various buffer solutions. Hardly soluble in organic solvents”.
In the case of `CO[C@@H]1O[C@H](COC(C)=O)[C@@H](O[C@@H]2O[C@H](CO)[C@H](OC(C)=O)[C@H](OC(C)=O)[C@H]2OC(C)=O)[C@H](OC(C)=O)[C@H]1NC(C)=O` [intermediate f, methyl-2-acetamide-3,6-di-O-acetyl-2-deoxy-4-O-(2,3,4-tri-O-acetyl-β-D-galactopyranosyl)-β-D-glucopyranoside], the Solubility is reported as “Soluble in chloroform, methanol, and ethanol. Hardly soluble in water and various buffer solutions”.
In the case of `CO[C@@H]1O[C@H](CO)[C@@H](O[C@@H]2O[C@H](CS)[C@H](O)[C@H](O)[C@H]2O)[C@H](O)[C@H]1NC(C)=O` [Sugar compound H, methyl-2-acetamide-2-deoxy-4-O-(6-mercapto-β-D-galactopyranosyl)-β-D-glucopyranoside], the Solubility is reported as “Soluble in water, alkaline solutions, acid solutions, various buffer solutions, methanol, and ethanol. Hardly soluble in hexane and in chloroform”.
In the case of B2, the Solubility is reported as “Soluble in water and various buffer solutions. Hardly soluble in organic solvents”.
With B1 the Solubility was “Soluble in water and various buffer solutions. Hardly soluble in organic solvents”.

Tested on: not listed separately
Test: Stability in acid (physical properties)
Assay type: physicochemical
Conditions: not given
For `C[C@H]1O[C@H](OP(=O)(O)OP(=O)(O)OC[C@H]2O[C@@H](n3ccc(=O)[nH]c3=O)[C@H](O)[C@@H]2O)[C@H](O)[C@@H](O)[C@H]1O` [intermediate b, uridine 5'-diphosphate-6-deoxy-D-galactose], the Decomposition in acid was “Decomposed in acid”.
